Source: US20260285850A1, “SUBSTITUTED OXAZOLIDINONES AND IMIDAZOLINONES AS HERBICIDES” (FMC CORPORATION, priority 2023, published 2026)

What was measured:
Type in all cases: in vivo
[1] = system: barnyardgrass (Echinochloa crus-galli); assay: Test A preemergence soil spray, visual injury rating 0-100; conditions: 10 days
Summary of the method: (§1)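 Plants in a loam and sand soil blend were treated with each test chemical, in a non-phytotoxic solvent system including surfactant, either sprayed on seeded soil before emergence or applied after emergence at the one- to two-leaf stage. Ten days later in the greenhouse, plants were compared with untreated controls and visually rated from 0 (no effect) to 100 (complete control).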

[2] = system: blackgrass (Alopecurus myosuroides); assay: as above; conditions: 10 days
Summary of the method: as §1

corn (Zea mays) [3] = assay: as above; conditions: 10 days
Summary of the method: as §1

[4] = system: green foxtail (Setaria viridis); assay: as above; conditions: 10 days
Summary of the method: as §1

kochia (Bassia scoparia) [5] = assay: as above; conditions: 10 days
Summary of the method: as §1

[6] = system: oat, wild (wild oat, Avena fatua); assay: as above; conditions: 10 days
Summary of the method: as §1

[7] = system: palmer (palmer amaranth, palmer pigweed, Amaranthus palmeri); assay: as above; conditions: 10 days
Summary of the method: as §1

[8] = system: ragweed (common ragweed, Ambrosia artemisiifolia); assay: as above; conditions: 10 days
Summary of the method: as §1

[9] = system: ryegrass, Italian (italian ryegrass, Lolium multiflorum); assay: as above; conditions: 10 days
Summary of the method: as §1

soybean (Glycine max) [10] = assay: as above; conditions: 10 days
Summary of the method: as §1

[11] = system: wheat (Triticum aestivum); assay: as above; conditions: 10 days
Summary of the method: as §1

[12] = system: barnyardgrass (Echinochloa crus-galli); assay: Test A postemergence application, visual injury rating 0-100
Summary of the method: as §1

[13] = system: blackgrass (Alopecurus myosuroides); assay: as above
Summary of the method: as §1

corn (Zea mays) [14] = assay: as above
Summary of the method: as §1

[15] = system: galium (catchweed bedstraw, Galium aparine); assay: as above
Summary of the method: as §1

[16] = system: green foxtail (Setaria viridis); assay: as above
Summary of the method: as §1

[17] = system: horseweed (Erigeron canadensis); assay: as above
Summary of the method: as §1

kochia (Bassia scoparia) [18] = assay: as above
Summary of the method: as §1

[19] = system: oat, wild (wild oat, Avena fatua); assay: as above
Summary of the method: as §1

[20] = system: palmer (palmer amaranth, palmer pigweed, Amaranthus palmeri); assay: as above
Summary of the method: as §1

[21] = system: ragweed (common ragweed, Ambrosia artemisiifolia); assay: as above
Summary of the method: as §1

[22] = system: ryegrass, Italian (italian ryegrass, Lolium multiflorum); assay: as above
Summary of the method: as §1

soybean (Glycine max) [23] = assay: as above
Summary of the method: as §1

[24] = system: wheat (Triticum aestivum); assay: as above
Summary of the method: as §1

[25] = system: barnyardgrass (Echinochloa crusgalli); assay: Test B flooded paddy test, visual plant response rating 0-100; conditions: 250 g ai/ha, Flood, applied to paddy water, evaluated after 13 days
Summary of the method: (§2)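 Plants were grown to the 2-leaf stage, then pots were flooded to 3 cm above the soil and compound was applied directly to the paddy water, with that depth kept throughout.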

[26] = system: ducksalad (Heteranthera limosa); assay: as above; conditions: 250 g ai/ha, Flood, applied to paddy water, evaluated after 13 days
Summary of the method: as §2

rice (Oryza sativa) = assay: as above; conditions: 250 g ai/ha, Flood, applied to paddy water, evaluated after 13 days
Summary of the method: as §2

[27] = system: sedge, umbrella (small-flower umbrella sedge, Cyperus difformis); assay: as above; conditions: 250 g ai/ha, Flood, applied to paddy water, evaluated after 13 days
Summary of the method: as §2

[28] = 62 g ai/ha, 0 = no effect, 100 = complete control
[29] = 62 g ai/ha, postemergence, 10 days, 0 = no effect, 100 = complete control
[30] = Postemergence, 16 g ai/ha, greenhouse 10 days, 0 no effect, 100 complete control

CC1(C(=O)NC2CC=C(C(=O)O)C2)CN(c2cc(Cl)cc(Cl)c2)C(=O)O1 (stereo not shown) [Compound 158]
Barnyardgrass plant response rating ([1]; 16 g ai/ha, 0 to 100 scale): 40 | Barnyardgrass plant response rating (0-100) [1, 28]: 90 | Blackgrass plant response rating ([2]; 16 g ai/ha, 0 to 100 scale): 0 | Blackgrass plant response rating (0-100) [2, 28]: 50 | Corn plant response rating (corn (Zea mays) [3]; 16 g ai/ha, 0 to 100 scale): 0 | Corn plant response rating (0-100) (corn (Zea mays) [3]; [28]): 60 | Foxtail, Green plant response rating ([4]; 16 g ai/ha, 0 to 100 scale): 0 | Foxtail, Green plant response rating (0-100) [4, 28]: 90 | Kochia plant response rating (kochia (Bassia scoparia) [5]; 16 g ai/ha, 0 to 100 scale): 30 | Kochia plant response rating (0-100) (kochia (Bassia scoparia) [5]; [28]): 80 | Oat, Wild plant response rating ([6]; 16 g ai/ha, 0 to 100 scale): 10 | Oat, Wild plant response rating (0-100) [6, 28]: 30 | Pigweed, Palmer plant response rating ([7]; 16 g ai/ha, 0 to 100 scale): 50 | Pigweed, Palmer plant response rating (0-100) [7, 28]: 90 | Ragweed plant response rating ([8]; 16 g ai/ha, 0 to 100 scale): 0 | Ragweed plant response rating (0-100) [8, 28]: 70 | Ryegrass, Italian plant response rating ([9]; 16 g ai/ha, 0 to 100 scale): 0 | Ryegrass, Italian plant response rating (0-100) [9, 28]: 70 | Soybean plant response rating (soybean (Glycine max) [10]; 16 g ai/ha, 0 to 100 scale): 0 | Soybean plant response rating (0-100) (soybean (Glycine max) [10]; [28]): 20 | Wheat plant response rating ([11]; 16 g ai/ha, 0 to 100 scale): 40 | Wheat plant response rating (0-100) [11, 28]: 80 | Barnyardgrass plant response rating (0-100) [12, 29]: 100 | Barnyardgrass plant response rating (0 to 100 scale) [12, 30]: 90 | Blackgrass plant response rating (0-100) [13, 29]: 100 | Blackgrass plant response rating (0 to 100 scale) [13, 30]: 80 | Corn plant response rating (0-100) (corn (Zea mays) [14]; [29]): 100 | Corn plant response rating (0 to 100 scale) (corn (Zea mays) [14]; [30]): 100 | Galium plant response rating (0-100) [15, 29]: 90 | Galium plant response rating (0 to 100 scale) [15, 30]: 90 | Foxtail, Green plant response rating (0-100) [16, 29]: 90 | Foxtail, Green plant response rating (0 to 100 scale) [16, 30]: 90 | Horseweed plant response rating (0-100) [17, 29]: 70 | Horseweed plant response rating (0 to 100 scale) [17, 30]: 30 | Kochia plant response rating (0-100) (kochia (Bassia scoparia) [18]; [29]): 90 | Kochia plant response rating (0 to 100 scale) (kochia (Bassia scoparia) [18]; [30]): 80 | Oat, Wild plant response rating (0-100) [19, 29]: 90 | Oat, Wild plant response rating (0 to 100 scale) [19, 30]: 20 | Pigweed, Palmer plant response rating (0-100) [20, 29]: 90 | Pigweed, Palmer plant response rating (0 to 100 scale) [20, 30]: 90 | Ragweed plant response rating (0-100) [21, 29]: 60 | Ragweed plant response rating (0 to 100 scale) [21, 30]: 50 | Ryegrass, Italian plant response rating (0-100) [22, 29]: 80 | Ryegrass, Italian plant response rating (0 to 100 scale) [22, 30]: 80 | Soybean plant response rating (0-100) (soybean (Glycine max) [23]; [29]): 90 | Soybean plant response rating (0 to 100 scale) (soybean (Glycine max) [23]; [30]): 60 | Wheat plant response rating (0-100) [24, 29]: 80 | Wheat plant response rating (0 to 100 scale) [24, 30]: 70 | Plant response rating, Barnyardgrass (0 to 100 scale, 0 is no effect and 100 is complete control) [25]: 90 | Plant response rating, Ducksalad (0 to 100 scale, 0 is no effect and 100 is complete control) [26]: 70 | Plant response rating, Rice (0 to 100 scale, 0 is no effect and 100 is complete control) (rice (Oryza sativa)): 50 | Plant response rating, Sedge, Umbrella (0 to 100 scale, 0 is no effect and 100 is complete control) [27]: 98
